pIC50: −log10 of the molar value.
tested on: lipoxygenase; assay: lipoxygenase inhibition: release of leukotriene B4 (LTB4) from polymorphonuclear rat leukocytes (PMN), reverse phase HPLC, after adding substances and Ca ionophore; format: cell-based; settings: read-out: LO inhibition IC50
Experimental: As a measure of the lipoxygenase inhibition, the release of leukotriene B4 (LTB4) from polymorphonuclear rat leukocytes (PMN) was determined by means of reverse phase HPLC according to Borgeat, P. et al., Proc. Nat. Acad. Sci. 76, 2148-2152 (1979) after adding substances and Ca ionophore. The in vivo activity of the compounds was determined using the mouse ear inflammation model according to Young, J. M. et al., J. of Investigative Dermatology 82, 367-371, (1984).

| Compound | pIC50 |
| --- | --- |
| Cc1cc(Cl)c(Cl)cc1NC(=S)Nc1ccc(OCc2ccc3ccccc3n2)cc1 [Example 5] | 6.39 |
| O=C(NC(=S)Nc1ccc(OCc2ccc3ccccc3n2)cc1)c1ccc(Cl)cc1 [Example 6, N-(4-Chlorobenzoyl)-N'-4-(quinolin-2-yl-methoxy)-phenyl-thiourea] | 6.44 |
| Cc1cc(Cl)ccc1NC(=S)Nc1ccc(OCc2ccc3ccccc3n2)cc1 [Example 8, N-(2-Methyl-4-chlorophenyl)-N'-4-(quinolin-2-yl-methoxy)phenyl-thiourea] | 6.54 |

The next compounds have a higher pIC50 than those just listed; values first:

| pIC50 | Compound |
| --- | --- |
| 6.62 | N#CC1(NC(=S)Nc2ccc(OCc3ccc4ccccc4n3)cc2)CCCCC1 [Example 7, N-(1-Cyano-cyclohexyl)-N'-4-(quinolin-2-yl-methoxy)phenyl-thiourea] |
| 7.44 | Cc1cc([N+](=O)[O-])ccc1NC(=S)Nc1ccc(OCc2ccc3ccccc3n2)cc1 [Example 3, N-(2-Methyl-4-nitrophenyl)-N'-4-(quinolin-2-yl-methoxy)phenyl-thiourea] |
| 7.48 | Cc1cc([N+](=O)[O-])c(Cl)cc1NC(=S)Nc1ccc(OCc2ccc3ccccc3n2)cc1 [Example 4, N-(2-Methyl-4-nitro-5-chlorophenyl)-N'-4-(quinolin-2-yl-methyloxy)phenyl-thiourea] |

Source: patent publication US5120744A, “Substituted (quinolin-2-yl-methoxy)phenylthioureas” (Bayer Aktiengesellschaft, priority 1989, dated 1992)
